# According to patent US6746623B2, “Alkyl glycidyl ether-capped diamine foam controlling agent” (Air Products and Chemicals, Inc., priority 2002, dated 2004):
# Legend:
# [1] = Dynamic surface tension of aqueous solutions, maximum bubble pressure method; assay type: physicochemical; conditions: for γ at 0.1 wt %, 0.1 b/s / γ at 0.1 wt %, 1 b/s / γ at 0.1 wt %, 6 b/s / γ at 0.1 wt %, 20 b/s: 0.1 wt % in distilled water; for γ limiting, 0.1 b/s / γ limiting, 1 b/s / γ limiting, 6 b/s / γ limiting, 20 b/s: saturated solution made using 1.0 wt % in water
# Excerpt: Dynamic surface tension data were obtained for the soluble portion of these samples using the maximum bubble pressure method at bubble rates from 0.1 bubbles/sec (b/s) to 20 b/s.
# The relative efficiency of surface tension reduction can be obtained by comparing surface tension reduction of solutions containing the same amount of different surfactants. Such data are given for 0.1 wt % solutions of the foam control agents at 0.1, 1, 6 and 20 bubbles/second (b/s). The limiting surface tensions at 0.1, 1, 6 and 20 b/s represent the lowest surface tensions in water which can be achieved at the given surface creation rates for a given surfactant regardless of the amount of surfactant used and is used to evaluate the effectiveness of a surfactant. In most cases the limiting surface tension was taken at 1.0 wt % since the foam control agent was insoluble at this concentration. In the case where the foam control agent was soluble at 1.0 wt %, the limiting surface tension was taken at 5.0 wt % (where the samples were insoluble). These values give information about the relative ability to a surfactant to reduce surface defects under near-equilibrium conditions (0.1 b/s) through very dynamic conditions (20 b/s).
# [2] = Foam test of DOSS solutions with added foam control agent (based on ASTM D 1173-53); assay type: physicochemical; conditions: 0.1 wt % foam control agent added to 0.1 wt % DOSS in water; for Initial foam height: ambient temperature
# Excerpt: Dioctyl sodium sulfosuccinate (DOSS) is a commonly used surfactant in waterborne compositions. DOSS is capable of forming stable foams when dissolved in water. The foam control characteristics of various foam control agents may be assessed by measuring the foam generated by a 0.1 wt % aqueous solution of DOSS and comparing this to the foam generated after the addition of foam control agent to a 0.1 wt % DOSS solution. The DOSS utilized in these measurements was an Aerosol OT 75% surfactant obtained from Cytec Industries. The foaming and foam stability of DOSS were measured using a procedure based upon ASTM D 1173-53 at ambient temperature, typically 23° C.
# In these tests, an aqueous solution of DOSS or the filtrate from the DOSS/foam control agent mixture is added from an elevated foam pipette to a foam receiver containing the same solution. The foam height is measured at the completion of the addition (“Initial Foam Height”) and the time required for the foam to dissipate at the air-liquid interface (“Time to 0 Foam”) is recorded. This test provides a comparison between the foaming characteristics of various aqueous compositions. The results for the foam control agents prepared in Examples 1-28 are reported in Table 1 along with comparative data for a 0.1 wt % solution of DOSS with no added foam control agent (Example 29).
"γ at 0.1 wt %, 0.1 b/s [1] [dyne/cm]","γ at 0.1 wt %, 1 b/s [1] [dyne/cm]","γ at 0.1 wt %, 6 b/s [1] [dyne/cm]","γ at 0.1 wt %, 20 b/s [1] [dyne/cm]","γ limiting, 0.1 b/s [1] [dyne/cm]","γ limiting, 1 b/s [1] [dyne/cm]","γ limiting, 6 b/s [1] [dyne/cm]","γ limiting, 20 b/s [1] [dyne/cm]",SMILES,Foam height after 1 min [2] [cm],Foam height after 10 min [2] [cm],Initial foam height [2] [cm]
42.8,55.7,67.5,67.7,35.3,36.4,38.9,41.5,CCCCOCC(O)CN(CCCC(C)CN(CC(O)COCCCC)CC(O)COCCCC)CC(O)COCCCC (stereo not drawn) [MPD/4 BGE],1.5,0.5,2.5
50.2,59.2,69.1,71.8,47.9,54.0,63.5,65.8,CCCCOCC(O)CNC1CCC(CC2CCC(N(CC(O)COCCCC)CC(O)COCCCC)CC2)CC1 (stereo not drawn) [PACM/3 BGE],2.8,1.5,2.5
70.6,71.8,72.0,72.4,58.5,68.5,70.5,71.0,CCCCOCC(O)CN(CC(O)COCCCC)C1CCC(CC2CCC(N(CC(O)COCCCC)CC(O)COCCCC)CC2)CC1 (stereo not drawn) [PACM/4 BGE],2.1,1.8,2.7
